# Measured values: US20250084040A1, “SUBSTITUTED HETEROCYCLES AS c-MYC TARGETING AGENTS” (Northwestern University, priority 2018, published 2025)
# Tested on: NCI 60 cell panel
# Test: NCI 60 Cell One-Dose Screen
# Format: cell-based, human
# Details: 1.00E−5 Molar
# Method: General Description. As of early 2007 all compounds submitted to the NCI 60 Cell screen are tested initially at a single high dose (10^-5 M) in the full NCI 60 cell panel. Only compounds which satisfy pre-determined threshold inhibition criteria in a minimum number of cell lines will progress to the full 5-dose assay. The threshold inhibition criteria for progression to the 5-dose screen was selected to efficiently capture compounds with anti-proliferative activity based on careful analysis of historical DTP screening data. The threshold criteria may be updated as additional data becomes available.
# Interpretation of One-Dose Data. The One-dose data will be reported as a mean graph of the percent growth of treated cells and will be similar in appearance to mean graphs from the 5-dose assay. The number reported for the One-dose assay is growth relative to the no-drug control, and relative to the time zero number of cells. This allows detection of both growth inhibition (values between 0 and 100) and lethality (values less than 0). This is the same as for the 5-dose assay, described below. For example, a value of 100 means no growth inhibition. A value of 40 would mean 60% growth inhibition. A value of 0 means no net growth over the course of the experiment. A value of −40 would mean 40% lethality. A value of −100 means all cells are dead. Information from the One-dose mean graph is available for COMPARE analysis.
# The human tumor cell lines of the cancer screening panel are grown in RPMI 1640 medium containing 5% fetal bovine serum and 2 mM L-glutamine. For a typical screening experiment, cells are inoculated into 96 well microtiter plates in 100 μL at plating densities ranging from 5,000 to 40,000 cells/well depending on the doubling time of individual cell lines. After cell inoculation, the microtiter plates are incubated at […], 5% CO2, 95% air and 100% relative humidity for 24 h prior to addition of experimental drugs.
# After 24 h, two plates of each cell line are fixed in situ with TCA, to represent a measurement of the cell population for each cell line at the time of drug addition (Tz). Experimental drugs are solubilized in dimethyl sulfoxide at 400-fold the desired final maximum test concentration and stored frozen prior to use. At the time of drug addition, an aliquot of frozen concentrate is thawed and diluted to twice the desired final maximum test concentration with complete medium containing 50 µg/ml gentamicin. Additional four, 10-fold or ½ log serial dilutions are made to provide a total of five drug concentrations plus control. Aliquots of 100 μl of these different drug dilutions are added to the appropriate microtiter wells already containing 100 μl of medium, resulting in the required final drug concentrations.
# Following drug addition, the plates are incubated for an additional 48 h at 37° C., 5% CO2, 95% air, and 100% relative humidity. For adherent cells, the assay is terminated by the addition of cold TCA. Cells are fixed in situ by the gentle addition of 50 μl of cold 50% (w/v) TCA (final concentration, 10% TCA) and incubated for 60 minutes at 4° C. The supernatant is discarded, and the plates are washed five times with tap water and air dried. Sulforhodamine B (SRB) solution (100 μl) at 0.4% (w/v) in 1% acetic acid is added to each well, and plates are incubated for 10 minutes at room temperature. After staining, unbound dye is removed by washing five times with 1% acetic acid and the plates are air dried. Bound stain is subsequently solubilized with 10 mM trizma base, and the absorbance is read on an automated plate reader at a wavelength of 515 nm. For suspension cells, the methodology is the same except that the assay is terminated by fixing settled cells at the bottom of the wells by gently adding 50 μl of 80% TCA (final concentration, 16% TCA). […]
structure (smiles),measurement,setting,value
Cn1nc(C(F)(F)F)cc1-c1ccc(OCc2ccc(Cl)cc2)c(-c2ccc(Cl)c(C(F)(F)F)c2)c1O [NSC: D-804955/1],Growth Percent,786-0 (Renal Cancer),28.42%
same,Growth Percent,A498 (Renal Cancer),5.29%
same,Growth Percent,A549/ATCC (Non-Small Cell Lung Cancer),12.83%
same,Growth Percent,ACHN (Renal Cancer),5.21%
same,Growth Percent,BT-549 (Breast Cancer),39.82%
same,Growth Percent,CAKI-1 (Renal Cancer),19.80%
same,Growth Percent,CCRF-CEM (Leukemia),9.89%
same,Growth Percent,COLO 205 (Colon Cancer),24.55%
same,Growth Percent,DU-145 (Prostate Cancer),19.03%
same,"Growth Percent, Delta",Delta of the mean graph,35.96%
same,Growth Percent,EKVX (Non-Small Cell Lung Cancer),12.77%
same,Growth Percent,HCC-2998 (Colon Cancer),13.50%
same,Growth Percent,HCT-15 (Colon Cancer),8.53%
same,Growth Percent,HCT-116 (Colon Cancer),−0.40%
same,Growth Percent,HL-60(TB) (Leukemia),9.30%
same,Growth Percent,HOP-62 (Non-Small Cell Lung Cancer),50.48%
same,Growth Percent,HOP-92 (Non-Small Cell Lung Cancer),−22.43%
same,Growth Percent,HS 578T (Breast Cancer),22.83%
same,Growth Percent,HT29 (Colon Cancer),20.44%
same,Growth Percent,IGROV1 (Ovarian Cancer),38.95%
same,Growth Percent,KM12 (Colon Cancer),8.83%
same,Growth Percent,LOX IMVI (Melanoma),5.24%
same,Growth Percent,M14 (Melanoma),35.38%
same,Growth Percent,MALME-3M (Melanoma),12.24%
same,Growth Percent,MCF7 (Breast Cancer),4.01%
same,Growth Percent,MDA-MB-231/ATCC (Breast Cancer),8.70%
same,Growth Percent,MDA-MB-435 (Melanoma),24.66%
same,Growth Percent,MDA-MB-468 (Breast Cancer),−18.75%
same,Growth Percent,MOLT-4 (Leukemia),12.26%
same,"Growth Percent, Mean",Mean over the cell panel,13.53%
same,Growth Percent,NCI-H23 (Non-Small Cell Lung Cancer),−6.46%
same,Growth Percent,NCI-H322M (Non-Small Cell Lung Cancer),18.15%
same,Growth Percent,NCI-H460 (Non-Small Cell Lung Cancer),6.25%
same,Growth Percent,NCI-H522 (Non-Small Cell Lung Cancer),−13.66%
same,Growth Percent,NCI/ADR-RES (Ovarian Cancer),8.38%
same,Growth Percent,OVCAR-3 (Ovarian Cancer),1.24%
same,Growth Percent,OVCAR-4 (Ovarian Cancer),30.19%
same,Growth Percent,OVCAR-5 (Ovarian Cancer),53.43%
same,Growth Percent,OVCAR-8 (Ovarian Cancer),7.41%
same,Growth Percent,PC-3 (Prostate Cancer),3.78%
same,Growth Percent,RPMI-8226 (Leukemia),−17.88%
same,"Growth Percent, Range",Range over the cell panel,75.86%
same,Growth Percent,SF-268 (CNS Cancer),26.01%
same,Growth Percent,SF-295 (CNS Cancer),12.82%
same,Growth Percent,SF-539 (CNS Cancer),34.37%
same,Growth Percent,SK-MEL-2 (Melanoma),1.95%
same,Growth Percent,SK-MEL-28 (Melanoma),31.16%
same,Growth Percent,SK-OV-3 (Ovarian Cancer),20.62%
same,Growth Percent,SN12C (Renal Cancer),6.24%
same,Growth Percent,SNB-19 (CNS Cancer),19.21%
same,Growth Percent,SNB-75 (CNS Cancer),47.69%
same,Growth Percent,SR (Leukemia),25.07%
same,Growth Percent,SW-620 (Colon Cancer),13.94%
same,Growth Percent,T-47D (Breast Cancer),−0.38%
same,Growth Percent,TK-10 (Renal Cancer),0.36%
same,Growth Percent,U251 (CNS Cancer),0.82%
same,Growth Percent,UACC-62 (Melanoma),19.68%
same,Growth Percent,UACC-257 (Melanoma),2.35%
same,Growth Percent,UO-31 (Renal Cancer),−6.34%
